Structures can show the parent of a compound that is named as a salt. Where two headings read alike, the source gives them in different places.
Tests used:
[1] = target: human JAK1 (a.a. 837-1142) (Homo sapiens, UniProt P23458); assay: In vitro JAK kinase assay (HTRF, phosphorylation of biotinylated peptide), JAK1; type: biochemical; settings: 1 mM ATP, read-out: JAK1 IC50
Method: Compounds herein were tested for inhibitory activity of JAK targets according to the following in vitro assay described in Park et al., Analytical Biochemistry 1999, 269, 94-104. The catalytic domains of human JAK1 (a.a. 837-1142) and JAK2 (a.a. 828-1132) with an N-terminal His tag were expressed using baculovirus in insect cells and purified. The catalytic activity of JAK1 and JAK2 was assayed by measuring the phosphorylation of a biotinylated peptide. The phosphorylated peptide was detected by homogenous time resolved fluorescence (HTRF). […] Reactions were carried out at room temperature for 1 hour and then stopped with 20 μL 45 mM EDTA, 300 nM SA-APC, 6 nM Eu-Py20 in assay buffer (Perkin Elmer, Boston, Mass.). Binding to the Europium labeled antibody took place for 40 minutes and HTRF signal was measured on a Fusion plate reader (Perkin Elmer, Boston, Mass.). […] Data is indicated as ranges, wherein “+” is less than 10 nM; “++” is 10 nM to 25 nM; “+++” is greater than 25 nM to 100 nM; and “++++” is greater than 100 nM. Greater than 25 nM to 100 nM specifies a range with a lower endpoint “at greater than 25 nM” and an upper endpoint at 100 nM.

JAK2 (a.a. 828-1132) = target: T1, JAK2 (a.a. 828-1132) (Homo sapiens, UniProt O60674); assay: In vitro JAK kinase assay (HTRF, phosphorylation of biotinylated peptide), JAK2; type: biochemical; settings: 1 mM ATP, read-out: JAK2 IC50
T1 construct: JAK2 (a.a. 828-1132); His tag (N)
T1 sequence (O60674 828-1132): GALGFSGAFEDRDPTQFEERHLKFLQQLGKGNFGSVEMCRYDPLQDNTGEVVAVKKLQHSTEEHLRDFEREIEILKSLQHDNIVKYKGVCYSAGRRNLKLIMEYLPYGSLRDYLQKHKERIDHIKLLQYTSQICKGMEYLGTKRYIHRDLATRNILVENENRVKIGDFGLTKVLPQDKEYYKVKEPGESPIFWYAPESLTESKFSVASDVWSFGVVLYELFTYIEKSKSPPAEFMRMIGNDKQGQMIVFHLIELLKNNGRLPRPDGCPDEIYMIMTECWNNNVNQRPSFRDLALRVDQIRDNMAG
Method: Compounds herein were tested for inhibitory activity of JAK targets according to the following in vitro assay described in Park et al., Analytical Biochemistry 1999, 269, 94-104. The catalytic domains of human JAK1 (a.a. 837-1142) and JAK2 (a.a. 828-1132) with an N-terminal His tag were expressed using baculovirus in insect cells and purified. The catalytic activity of JAK1 and JAK2 was assayed by measuring the phosphorylation of a biotinylated peptide. The phosphorylated peptide was detected by homogenous time resolved fluorescence (HTRF). […] Reactions were carried out at room temperature for 1 hour and then stopped with 20 μL 45 mM EDTA, 300 nM SA-APC, 6 nM Eu-Py20 in assay buffer (Perkin Elmer, Boston, Mass.). Binding to the Europium labeled antibody took place for 40 minutes and HTRF signal was measured on a Fusion plate reader (Perkin Elmer, Boston, Mass.). See Tables A-F for data related to compounds of the Examples (at 1 mM). Data is indicated as ranges, wherein “+” is less than 10 nM; “++” is 10 nM to 25 nM; “+++” is greater than 25 nM to 100 nM; and “++++” is greater than 100 nM. Greater than 25 nM to 100 nM specifies a range with a lower endpoint “at greater than 25 nM” and an upper endpoint at 100 nM.

human JAK1 (a.a. 837-1142), sequence (P23458 849-1154): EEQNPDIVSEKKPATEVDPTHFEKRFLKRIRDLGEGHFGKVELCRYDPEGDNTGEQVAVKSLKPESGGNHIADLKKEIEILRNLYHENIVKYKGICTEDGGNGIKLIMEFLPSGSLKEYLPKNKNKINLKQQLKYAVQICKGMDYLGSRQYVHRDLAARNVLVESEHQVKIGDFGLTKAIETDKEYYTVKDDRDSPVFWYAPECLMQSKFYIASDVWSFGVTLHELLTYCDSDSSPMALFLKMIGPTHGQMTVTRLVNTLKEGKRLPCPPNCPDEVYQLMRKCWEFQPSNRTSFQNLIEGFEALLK

In the case of N#CC[C@]1(n2cc(-c3ncnc4[nH]ccc34)cn2)C[C@H](N2CCN(C(=O)c3cc(F)cnc3Cl)CC2)C1 [Example 9b, {trans-3-{4-[(2-chloro-5-fluoropyridin-3-yl)carbonyl]piperazin-1-yl}-1-[4-(7H-pyrrolo[2,3-d]pyrimidin-4-yl)-1H-pyrazol-1-yl]cyclobutyl}acetonitrile], the IC50 ([1]; Table B) is reported as < 10 nM and the IC50 (JAK2 (a.a. 828-1132); Table B) is reported as 10 to 25 nM.

In the case of N#CC[C@]1(n2cc(-c3ncnc4[nH]ccc34)cn2)C[C@@H](N2CCN(C(=O)c3cncc(F)c3)CC2)C1 [Example 10a, {cis-3-{4-[(5-fluoropyridin-3-yl)carbonyl]piperazin-1-yl}-1-[4-(7H-pyrrolo[2,3-d]pyrimidin-4-yl)-1H-pyrazol-1-yl]cyclobutyl}acetonitrile], the IC50 ([1]; Table A) is reported as < 10 nM and the IC50 (JAK2 (a.a. 828-1132); Table A) is reported as > 100 nM.

With N#CC[C@]1(n2cc(-c3ncnc4[nH]ccc34)cn2)C[C@H](N2CCN(C(=O)c3cncc(F)c3)CC2)C1 [Example 10b, {trans-3-{4-[(5-fluoropyridin-3-yl)carbonyl]piperazin-1-yl}-1-[4-(7H-pyrrolo[2,3-d]pyrimidin-4-yl)-1H-pyrazol-1-yl]cyclobutyl}acetonitrile tris(trifluoroacetate) Salt] the IC50 ([1]; Table B) was < 10 nM and the IC50 (JAK2 (a.a. 828-1132); Table B) was 25 to 100 nM.

For N#CC[C@]1(n2cc(-c3ncnc4[nH]ccc34)cn2)C[C@@H](N2CCN(C(=O)c3ccnc(C(F)F)c3F)CC2)C1 [Example 11a, {cis-3-{4-[2-(difluoromethyl)-3-fluoroisonicotinoyl]piperazin-1-yl}-1-[4-(7H-pyrrolo[2,3-d]pyrimidin-4-yl)-1H-pyrazol-1-yl]cyclobutyl}acetonitrile], the IC50 ([1]; Table A) was 10 to 25 nM and the IC50 (JAK2 (a.a. 828-1132); Table A) was > 100 nM.

For N#CC[C@]1(n2cc(-c3ncnc4[nH]ccc34)cn2)C[C@H](N2CCN(C(=O)c3ccnc(C(F)F)c3F)CC2)C1 [Example 11b, {trans-3-{4-[2-(difluoromethyl)-3-fluoroisonicotinoyl]piperazin-1-yl}-1-[4-(7H-pyrrolo[2,3-d]pyrimidin-4-yl)-1H-pyrazol-1-yl]cyclobutyl}acetonitrile], the IC50 ([1]; Table B) was < 10 nM and the IC50 (JAK2 (a.a. 828-1132); Table B) was 25 to 100 nM.

For N#CC[C@]1(n2cc(-c3ncnc4[nH]ccc34)cn2)C[C@@H](N2CCN(C(=O)c3cc(F)cc(C#N)c3)CC2)C1 [Example 12a, 3-[(4-{cis-3-(cyanomethyl)-3-[4-(7H-pyrrolo[2,3-d]pyrimidin-4-yl)-1H-pyrazol-1-yl]cyclobutyl}piperazin-1-yl)carbonyl]-5-fluorobenzonitrile], the IC50 ([1]; Table A) was < 10 nM and the IC50 (JAK2 (a.a. 828-1132); Table A) was 25 to 100 nM.

For N#CC[C@]1(n2cc(-c3ncnc4[nH]ccc34)cn2)C[C@H](N2CCN(C(=O)c3cc(F)cc(C#N)c3)CC2)C1 [Example 12b, 3-[(4-{trans-3-(cyanomethyl)-3-[4-(7H-pyrrolo[2,3-d]pyrimidin-4-yl)-1H-pyrazol-1-yl]cyclobutyl}piperazin-1-yl)carbonyl]-5-fluorobenzonitrile], the IC50 ([1]; Table B) was < 10 nM and the IC50 (JAK2 (a.a. 828-1132); Table B) was 10 to 25 nM.

N#CC[C@]1(n2cc(-c3ncnc4[nH]ccc34)cn2)C[C@@H](N2CCN(C(=O)c3nc(C(F)(F)F)cs3)CC2)C1 [Example 13a, [cis-1-[4-(7H-pyrrolo[2,3-d]pyrimidin-4-yl)-1H-pyrazol-1-yl]-3-(4-{[4-(trifluoromethyl)-1,3-thiazol-2-yl]carbonyl}piperazin-1-yl)cyclobutyl]acetonitrile] was tested, and the IC50 ([1]; Table A) was < 10 nM and the IC50 (JAK2 (a.a. 828-1132); Table A) was 25 to 100 nM.

N#CC[C@]1(n2cc(-c3ncnc4[nH]ccc34)cn2)C[C@H](N2CCN(C(=O)c3nc(C(F)(F)F)cs3)CC2)C1 [Example 13b, [trans-1-[4-(7H-pyrrolo[2,3-d]pyrimidin-4-yl)-1H-pyrazol-1-yl]-3-(4-{[4-(trifluoromethyl)-1,3-thiazol-2-yl]carbonyl}piperazin-1-yl)cyclobutyl]acetonitrile] was tested, and the IC50 ([1]; Table B) was < 10 nM and the IC50 (JAK2 (a.a. 828-1132); Table B) was 25 to 100 nM.

In the case of N#CC[C@]1(n2cc(-c3ncnc4[nH]ccc34)cn2)C[C@@H](N2CCN(C(=O)c3cncc(C(F)(F)F)n3)CC2)C1 [Example 14a, [cis-1-[4-(7H-pyrrolo[2,3-d]pyrimidin-4-yl)-1H-pyrazol-1-yl]-3-(4-{[6-(trifluoromethyl)pyrazin-2-yl]carbonyl}piperazin-1-yl)cyclobutyl]acetonitrile], the IC50 ([1]; Table A) is reported as < 10 nM and the IC50 (JAK2 (a.a. 828-1132); Table A) is reported as 25 to 100 nM.

With N#CC[C@]1(n2cc(-c3ncnc4[nH]ccc34)cn2)C[C@H](N2CCN(C(=O)c3cncc(C(F)(F)F)n3)CC2)C1 [Example 14b, [trans-1-[4-(7H-pyrrolo[2,3-d]pyrimidin-4-yl)-1H-pyrazol-1-yl]-3-(4-{[6-(trifluoromethyl)pyrazin-2-yl]carbonyl}piperazin-1-yl)cyclobutyl]acetonitrile] the IC50 ([1]; Table B) was < 10 nM and the IC50 (JAK2 (a.a. 828-1132); Table B) was 25 to 100 nM.

For N#CC[C@]1(n2cc(-c3ncnc4[nH]ccc34)cn2)C[C@@H](N2CCN(C(=O)c3ccc(F)c(F)c3)CC2)C1 [Example 15a, {cis-3-[4-(3,4-difluorobenzoyl)piperazin-1-yl]-1-[4-(7H-pyrrolo[2,3-d]pyrimidin-4-yl)-1H-pyrazol-1-yl]cyclobutyl}acetonitrile], the IC50 ([1]; Table A) was < 10 nM and the IC50 (JAK2 (a.a. 828-1132); Table A) was 25 to 100 nM.

In the case of N#CC[C@]1(n2cc(-c3ncnc4[nH]ccc34)cn2)C[C@H](N2CCN(C(=O)c3ccc(F)c(F)c3)CC2)C1 [Example 15b, {trans-3-[4-(3,4-difluorobenzoyl)piperazin-1-yl]-1-[4-(7H-pyrrolo[2,3-d]pyrimidin-4-yl)-1H-pyrazol-1-yl]cyclobutyl}acetonitrile], the IC50 ([1]; Table B) is reported as < 10 nM and the IC50 (JAK2 (a.a. 828-1132); Table B) is reported as 10 to 25 nM.

In the case of N#CC[C@]1(n2cc(-c3ncnc4[nH]ccc34)cn2)C[C@@H](N2CCN(Cc3c(F)ccc(F)c3Cl)CC2)C1 [Example 16a, {cis-3-[4-(2-chloro-3,6-difluorobenzyl)piperazin-1-yl]-1-[4-(7H-pyrrolo[2,3-d]pyrimidin-4-yl)-1H-pyrazol-1-yl]cyclobutyl}acetonitrile], the IC50 ([1]; Table A) is reported as < 10 nM and the IC50 (JAK2 (a.a. 828-1132); Table A) is reported as 10 to 25 nM.

N#CC[C@]1(n2cc(-c3ncnc4[nH]ccc34)cn2)C[C@H](N2CCN(Cc3c(F)ccc(F)c3Cl)CC2)C1 [Example 16b, {trans-3-[4-(2-chloro-3,6-difluorobenzyl)piperazin-1-yl]-1-[4-(7H-pyrrolo[2,3-d]pyrimidin-4-yl)-1H-pyrazol-1-yl]cyclobutyl}acetonitrile] was tested, and the IC50 ([1]; Table B) was < 10 nM and the IC50 (JAK2 (a.a. 828-1132); Table B) was 25 to 100 nM.

N#CC[C@]1(n2cc(-c3ncnc4[nH]ccc34)cn2)C[C@@H](N2CCN(C(=O)c3cc(F)cc(C(F)(F)F)c3)CC2)C1 [Example 17, {cis-3-{4-[3-fluoro-5-(trifluoromethyl)benzoyl]piperazin-1-yl}-1-[4-(7H-pyrrolo[2,3-d]pyrimidin-4-yl)-1H-pyrazol-1-yl]cyclobutyl}acetonitrile] was tested, and the IC50 ([1]; Table A) was < 10 nM and the IC50 (JAK2 (a.a. 828-1132); Table A) was 25 to 100 nM.

With N#CC[C@]1(n2cc(-c3ncnc4[nH]ccc34)cn2)C[C@H](N2CCN(C(=O)c3ccc(C(F)(F)F)cc3F)CC2)C1 [Example 18, {trans-3-{4-[2-fluoro-4-(trifluoromethyl)benzoyl]piperazin-1-yl}-1-[4-(7H-pyrrolo[2,3-d]pyrimidin-4-yl)-1H-pyrazol-1-yl]cyclobutyl}acetonitrile 2.3×(trifluoroacetate) Salt] the IC50 ([1]; Table B) was < 10 nM and the IC50 (JAK2 (a.a. 828-1132); Table B) was 10 to 25 nM.

N#CC[C@]1(n2cc(-c3ncnc4[nH]ccc34)cn2)C[C@H](N2CCN(C(=O)N3CCCC3)CC2)C1 [Example 19, {trans-3-[4-(pyrrolidin-1-ylcarbonyl)piperazin-1-yl]-1-[4-(7H-pyrrolo[2,3-d]pyrimidin-4-yl)-1H-pyrazol-1-yl]cyclobutyl}acetonitrile] was tested, and the IC50 ([1]; Table B) was 10 to 25 nM and the IC50 (JAK2 (a.a. 828-1132); Table B) was > 100 nM.

N#CC[C@]1(n2cc(-c3ncnc4[nH]ccc34)cn2)C[C@@H](N2CCN(C(=O)c3cccc(C(F)(F)F)n3)CC2)C1 [Example 20a, {cis-1-[4-(7H-pyrrolo[2,3-d]pyrimidin-4-yl)-1H-pyrazol-1-yl]-3-(4-{[6-(trifluoromethyl)pyridin-2-yl]carbonyl}piperazin-1-yl)cyclobutyl}acetonitrile] was tested, and the IC50 ([1]; Table A) was < 10 nM and the IC50 (JAK2 (a.a. 828-1132); Table A) was 25 to 100 nM.

With N#CC[C@]1(n2cc(-c3ncnc4[nH]ccc34)cn2)C[C@H](N2CCN(C(=O)c3cccc(C(F)(F)F)n3)CC2)C1 [Example 20b, {trans-1-[4-(7H-pyrrolo[2,3-d]pyrimidin-4-yl)-1H-pyrazol-1-yl]-3-(4-{[6-(trifluoromethyl)pyridin-2-yl]carbonyl}piperazin-1-yl)cyclobutyl}acetonitrile] the IC50 ([1]; Table B) was < 10 nM and the IC50 (JAK2 (a.a. 828-1132); Table B) was 25 to 100 nM.

Reference: patent publication US10640506B2, “Cyclobutyl substituted pyrrolopyridine and pyrrolopyrimidines derivatives as JAK inhibitors” (Incyte Corporation, priority 2010, dated 2020)
